Measurements as given in patent US20220290200A1, “GENETICALLY MODIFIED HOST CELLS PRODUCING GLYCOSYLATED CANNABINOIDS” (OCTARINE BIO IVS, priority 2019, published 2022).

Experiments:
[1] = test system: S. cerevisiae strain BY4741; assay: Toxicity of cannabinoids and cannabinoid glycosides in S. cerevisiae (final OD600); assay type: cell-based; settings: 3% ethanol; for Final OD600 of S. cerevisiae: 72 h; for toxicity to yeast (final OD600 after 72 h): YP media, 2% glucose, 30° C., concentration range tested
Experimental: It is well known that cannabinoids are toxic to microbes, and it is thought that these compounds are produced by cannabis plants as a defense mechanism against infection. […] Product toxicity in microbial strains engineered to produce cannabinoids will hinder high-level production of these molecules, glycosylating these molecules can be used to detoxify them and facilitate higher production titers in engineered microbial strains. […] Cells were inoculated to a starting OD600 of 0.1 and incubated at 30° C. and 200 RPM and the final OD600 was measured after 72 h.

[2] = In vitro glycosyl transferase performance, purified enzymes, % conversion of cannabinoids to cannabinoid glycosides; assay type: biochemical; settings: acceptor CBD, UDP-Glucose
Summary of the method: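 His-tagged glycosyl transferases expressed in E. coli XJb (DE3) were Ni-affinity purified. Cannabinoids (in methanol) were incubated with enzyme, UDP-sugar and alkaline phosphatase without shaking at 30 °C for 24 h. Products confirmed by LC-MS/QTOF; % conversion derived from substrate decrease and glycoside peak areas against authentic standards.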

[3] = In vitro enzymatic cascade converting sucrose and CBD to CBD glycosides; assay type: biochemical; settings: enzymes added: GmSuSy, Cs73Y
From the text: In the previous examples, in vitro glycosyl transferase assays required the addition of an “activated” sugar (e.g. UDP-glucose), which is typically an extremely expensive reagent, furthermore, other activated sugars e.g. UDP-rhamnose are not available commercially and must be custom synthesized at high-cost and difficulty. […] To facilitate the low-cost production of cannabinoid glycosides not only with glucose, but with alternative sugars, an enzymatic cascade was set up to convert cannabinoids and the simple sugar sucrose into various cannabinoid glycosides. The cascade is divided into 3 steps, in step 1 sucrose and uridine diphosphate (UDP) is converted to UDP-glucose by GmSuSy (SEQ ID NO: 209, 210), additionally generating fructose as a bi-product. In step 2, UDP-glucose is interconverted to alternative UDP-sugars using a range of enzymes. For example, conversion of UDP-glucose to UDP-galactose by BsGa/E, multiple enzymes can also be used to produce UDP-sugars via other UDP-sugar intermediates. For example, conversion of UDP-glucose to UDP-glucuronic acid by AtUGDH1 combined with conversion of UDP-glucuronic acid to UDP-xylose by AtUXS3. In step 3, glycosyl transferases convert the activated sugar and a cannabinoid acceptor to the corresponding cannabinoid glycoside. For example, conversion of UDP-rhamnose and CBD to CBD-1′-O-β-D-rhamnoside (OB13) by Cs73Y (SEQ ID NO: 157, 158).
Enzymes were purified and the in vitro assay performed as described in Example 13 and the reaction mixture set up as shown in table 57. Enzymes and co-factors were added as required for each individual reaction. Samples were extracted and analyzed as stated above.

Compound	Final OD600 of S. cerevisiae ([1]; 100 μM substrate added)	Final OD600 of S. cerevisiae ([1]; 200 μM substrate added)	Final OD600 of S. cerevisiae ([1]; 400 μM substrate added)	Final OD600 of S. cerevisiae ([1]; 800 μM substrate added)	toxicity to yeast (final OD600 after 72 h) [1]	Conversion % (CBD to the glycoside) ([2]; enzyme PL-159(Pt88G_GA), in vitro 30° C. 24 h) [%]	% Conversion of CBD and sucrose to CBD glycoside [3] [%]	Conversion % (CBD to the glycoside) ([2]; enzyme PL-214(Cs73Y_GA)) [%]
C=C(C)[C@@H]1CCC(C)=C[C@H]1c1c(O)cc(CCCCC)cc1O [CBD, cannabidiol, reference compound]	9.3	8.2	6.7	4.7	toxic to yeast			
C=C(C)[C@@H]1CCC(C)=C[C@H]1c1c(O)cc(CCCCC)cc1O[C@@H]1O[C@H](CO)[C@@H](O)[C@H](O)[C@H]1O [OB1, CBD-1′-O-β-D-glucoside]						75		
C=C(C)[C@@H]1CCC(C)=C[C@H]1c1c(O[C@@H]2O[C@H](CO)[C@@H](O)[C@H](O)[C@H]2O)cc(CCCCC)cc1O[C@@H]1O[C@H](CO)[C@@H](O)[C@H](O)[C@H]1O [OB6, CBD-1′-O-β-D-glucosyl-3′-O-β-D-glucoside]	9.1	8.8	9.5	8.8	non-toxic at the concentration range tested		91.3	57.5
